How the values were obtained:
[1] = test system: HL-60; assay: HL-60 cell differentiation relative to 1-alpha, 25-dihydroxyvitamin D3; assay type: functional, Homo sapiens
[2] = organism: Rattus norvegicus; assay: Compound was evaluated for rat serum Ca concentration in relative to 1-alpha, 25-dihydroxyvitamin D3; assay type: functional
[3] = test system: HL-60; assay: Effect on HL-60 cell differentiation; assay type: functional, Homo sapiens
[4] = target: T1, Vitamin D3 receptor (Bos taurus) (UniProt Q28037); assay: Binding affinity for bovine thymus Vitamin D3 receptor (VDR)
T1 sequence (whole entry): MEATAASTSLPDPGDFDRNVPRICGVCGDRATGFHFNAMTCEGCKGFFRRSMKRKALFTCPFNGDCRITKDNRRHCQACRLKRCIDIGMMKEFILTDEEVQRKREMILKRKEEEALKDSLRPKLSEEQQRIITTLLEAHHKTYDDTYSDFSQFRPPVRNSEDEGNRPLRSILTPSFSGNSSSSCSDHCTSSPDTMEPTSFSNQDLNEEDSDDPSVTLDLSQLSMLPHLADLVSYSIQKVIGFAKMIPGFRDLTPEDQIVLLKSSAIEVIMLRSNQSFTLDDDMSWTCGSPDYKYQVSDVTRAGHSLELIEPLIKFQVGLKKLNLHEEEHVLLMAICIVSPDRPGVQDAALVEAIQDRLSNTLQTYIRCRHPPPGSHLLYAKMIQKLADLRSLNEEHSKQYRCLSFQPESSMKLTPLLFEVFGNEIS

[5] = organism: Rattus norvegicus; assay: Compound was evaluated for rat serum Ca concentration; assay type: functional

Row | SMILES | Relative potency [1] | further results
1 | C=C1/C(=C\C=C2/CCC[C@]3(C)[C@@H]([C@H](C)CCCC(C)(C)O)CC[C@@H]23)C[C@H](O)[C@@H](C)[C@H]1O | 3 | –
2 | C=C1/C(=C\C=C2/CCC[C@]3(C)[C@@H]([C@H](C)CCCC(C)(C)O)CC[C@@H]23)C[C@@H](O)[C@H](C)[C@@H]1O | 200 | Relative potency [2]: 400
3 | C=C1/C(=C\C=C2/CCC[C@]3(C)[C@@H]([C@H](C)CCCC(C)(C)O)CC[C@@H]23)C[C@@H](O)[C@@H](C)[C@@H]1O | 10 | Relative potency [2]: 2
4 | C=C1/C(=C\C=C2/CCC[C@]3(C)[C@@H]([C@H](C)CCCC(C)(C)O)CC[C@@H]23)C[C@@H](O)C[C@@H]1O [CALCITRIOL] | – | Relative potency [3]: 100; Relative potency [4]: 100; Relative potency [5]: 100
5 | C=C1/C(=C\C=C2/CCC[C@]3(C)[C@@H]([C@H](C)CCCC(C)(C)O)CC[C@@H]23)C[C@@H](O)[C@H](C)[C@H]1O | 1 | –
6 | C=C1/C(=C\C=C2/CCC[C@]3(C)[C@@H]([C@H](C)CCCC(C)(C)O)CC[C@@H]23)C[C@@H](O)[C@@H](C)[C@H]1O | 1.5 | –
7 | C=C1/C(=C\C=C2/CCC[C@]3(C)[C@@H]([C@H](C)CCCC(C)(C)O)CC[C@@H]23)C[C@H](O)[C@H](C)[C@H]1O | 0.5 | –
8 | C=C1/C(=C\C=C2/CCC[C@]3(C)[C@@H]([C@H](C)CCCC(C)(C)O)CC[C@@H]23)C[C@H](O)[C@@H](C)[C@@H]1O | 1.5 | –

— ChEMBL document CHEMBL1130618, “A novel and practical route to A-ring enyne synthon for 1 alpha,25-dihydroxyvitamin D3 analogs: synthesis of A-ring diastereomers of 1 alpha,25-dihydroxyvitamin D2 and 3-methyl-1,25-dihydroxyvitamin D3” (1998)
